Experimental findings from patent US12662491B2 (Redona Therapeutics, Inc., priority 2020, dated 2026) are described below.

What is called IC50 is the concentration needed to halve the response being measured.

For the first assay, the target named is T1, Zcchc11 enzyme (Homo sapiens, UniProt Q5TAX3).
T1 construct: made in house; host or cells: HEK293 cells (Zcchc11); E. coli Rosetta II (LIN28A)
T1 sequence (Q5TAX3 212-1420): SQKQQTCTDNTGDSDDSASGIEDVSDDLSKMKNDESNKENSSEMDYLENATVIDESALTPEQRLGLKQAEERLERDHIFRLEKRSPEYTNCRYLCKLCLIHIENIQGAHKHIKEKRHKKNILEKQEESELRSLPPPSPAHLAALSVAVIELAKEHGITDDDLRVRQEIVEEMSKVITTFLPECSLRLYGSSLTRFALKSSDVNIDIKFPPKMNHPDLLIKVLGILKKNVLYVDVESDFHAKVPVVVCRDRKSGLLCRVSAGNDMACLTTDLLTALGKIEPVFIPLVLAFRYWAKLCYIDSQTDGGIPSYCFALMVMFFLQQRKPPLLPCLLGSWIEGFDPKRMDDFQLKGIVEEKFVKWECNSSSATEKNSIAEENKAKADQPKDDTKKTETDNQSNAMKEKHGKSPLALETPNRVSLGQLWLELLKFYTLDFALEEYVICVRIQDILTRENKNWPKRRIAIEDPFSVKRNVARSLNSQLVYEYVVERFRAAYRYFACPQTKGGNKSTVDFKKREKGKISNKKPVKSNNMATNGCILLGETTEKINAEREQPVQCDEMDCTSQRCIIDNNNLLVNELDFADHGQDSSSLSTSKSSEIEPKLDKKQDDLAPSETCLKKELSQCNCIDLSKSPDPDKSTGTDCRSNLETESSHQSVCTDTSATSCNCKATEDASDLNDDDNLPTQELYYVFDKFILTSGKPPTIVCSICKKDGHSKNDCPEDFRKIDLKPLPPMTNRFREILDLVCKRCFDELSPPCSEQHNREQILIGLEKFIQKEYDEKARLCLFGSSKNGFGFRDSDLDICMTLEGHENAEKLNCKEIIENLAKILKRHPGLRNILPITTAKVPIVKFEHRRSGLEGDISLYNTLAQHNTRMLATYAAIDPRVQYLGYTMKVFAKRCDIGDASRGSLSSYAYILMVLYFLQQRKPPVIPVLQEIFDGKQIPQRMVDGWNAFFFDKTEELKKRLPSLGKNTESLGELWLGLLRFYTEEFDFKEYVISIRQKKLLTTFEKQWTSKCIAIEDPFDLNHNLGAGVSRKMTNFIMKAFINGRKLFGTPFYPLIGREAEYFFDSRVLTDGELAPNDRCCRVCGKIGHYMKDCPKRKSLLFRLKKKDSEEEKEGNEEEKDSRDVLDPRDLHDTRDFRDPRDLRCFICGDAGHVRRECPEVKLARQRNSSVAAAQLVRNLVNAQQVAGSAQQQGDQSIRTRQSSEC
Briefly: TUTase assay (Zcchc11 assay, Lin28a-dependent polyuridylation of pre-let-7). The settings on record: LIN28A 10 nM, Zcchc11 0.2 nM, 5′-fluorescein pre-let-7 miRNA 2 nM, UTP 5 uM, room temperature, 30 minutes pre-incubation; read-out: Potency Lin28a-dep Z11 IC50. Type of assay: biochemical. The gist of the method:
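Human Zcchc11 residues 212-1420 (HEK293-expressed, MBP tag cleaved, C-terminal FLAG) at 0.2 nM, with 10 nM full-length human LIN28A and 2 nM 5′-fluorescein pre-let-7, preincubated with compound 30 min at room temperature. Reaction started with 5 uM UTP plus 4 nM 3′-rhodamine A20 quench probe; fluorescein loss read kinetically, IC50 from initial rates.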
As for `COc1ccc(Cl)c(OC[C@H]2C[C@H]3C[C@H]3N2c2cc3c(cc2F)c(=O)c(C(=O)O)cn3-c2ccc(N3CC(N(C)C)C3)nc2)n1` [Example 68, 7-((1R,3R,5R)-3-(((3-chloro-6-methoxypyridin-2-yl)oxy)methyl)-2-azabicyclo[3.1.0]hexan-2-yl)-1-(6-(3-(dimethylamino)azetidin-1-yl)pyridin-3-yl)-6-fluoro-4-oxo-1,4-dihydroquinoline-3-carboxylic acid], the IC50 is at most 1000 nM.
Same read-out and setting: the same measure for `CO/N=C1/C[C@H](COc2nc(OC)ccc2Cl)N(c2cc3c(cc2Cl)c(=O)c(C(=O)O)cn3-c2ccc(N3CC(N(C)C)C3)nc2)C1` [Example 69, 6-chloro-7-[(2R,4Z)-2-[[(3-chloro-6-methoxypyridin-2-yl)oxy]methyl]-4-(methoxyimino)pyrrolidin-1-yl]-1-[6-[3-(dimethylamino)azetidin-1-yl]pyridin-3-yl]-4-oxoquinoline-3-carboxylic acid]: at most 1000 nM; for `COc1ccc(Cl)c(OC[C@H]2C[C@@H]3C[C@@H]3N2c2cc3c(cc2F)c(=O)c(C(=O)O)cn3-c2ccc(N3CC(N(C)C)C3)nc2)n1` [Example 70, 7-[(3R)-3-{[(3-chloro-6-methoxypyridin-2-yl)oxy]methyl}-2-azabicyclo[3.1.0]hexan-2-yl]-1-{6-[3-(dimethylamino)azetidin-1-yl]pyridin-3-yl}-6-fluoro-4-oxo-1,4-dihydroquinoline-3-carboxylic acid]: at most 1000 nM; for `COc1ccc(Cl)c(OC[C@H]2CC(c3cn[nH]c3)CN2c2cc3c(cc2F)c(=O)c(C(=O)O)cn3-c2ccc(N3CC(N(C)C)C3)nc2)n1` (stereo partly drawn) [Example 71, 7-[(2R)-2-[[(3-chloro-6-methoxypyridin-2-yl)oxy]methyl]-4-(1H-pyrazol-4-yl)pyrrolidin-1-yl]-1-[6-[3-(dimethylamino)azetidin-1-yl]pyridin-3-yl]-6-fluoro-4-oxoquinoline-3-carboxylic acid]: at most 1000 nM.
The same measure, in the same setting: the same measure for `COc1ccc(Cl)c(OC[C@H]2CC3CC3N2c2cc3c(cc2F)c(=O)c(C(=O)O)cn3-c2ccc(N3CC(N(C)C)C3)nc2)n1` (stereo partly drawn) [Example 72, 7-[(3R)-3-{[(3-chloro-6-methoxypyridin-2-yl)oxy]methyl}-2-azabicyclo[3.1.0]hexan-2-yl]-1-{6-[3-(dimethylamino)azetidin-1-yl]pyridin-3-yl}-6-fluoro-4-oxo-1,4-dihydroquinoline-3-carboxylic acid]: at most 1000 nM.
`COc1ccc(Cl)c(OC[C@H]2C[C@@H]3C[C@@H]3N2c2cc3c(cc2F)c(=O)c(C(=O)O)cn3-c2ccc(N3CC(N(C)C)C3)nc2)n1` [Example 74, 7-[(1S,3R,5S)-3-{[(3-chloro-6-methoxypyridin-2-yl)oxy]methyl}-2-azabicyclo[3.1.0]hexan-2-yl]-1-{6-[3-(dimethylamino)azetidin-1-yl]pyridin-3-yl}-6-fluoro-4-oxo-1,4-dihydroquinoline-3-carboxylic acid]: the half-maximal inhibitory concentration (IC50) is at most 1000 nM.
Still for that read-out and setting: the same measure for `COc1ccnc(OC[C@H]2CCCN2c2cc3c(cc2Cl)c(=O)c(C(=O)O)cn3-c2ccc(N3CC(N(C)C)C3)nc2)c1Cl` [Example 75, 6-chloro-7-[(2R)-2-{[(3-chloro-4-methoxypyridin-2-yl)oxy]methyl}pyrrolidin-1-yl]-1-{6-[3-(dimethylamino)azetidin-1-yl]pyridin-3-yl}-4-oxo-1,4-dihydroquinoline-3-carboxylic acid]: at most 1000 nM; for `O=C(O)c1cn(-c2cc3n(n2)CCOC3)c2cc(N3CCC[C@@H]3COc3ncccc3Cl)c(Cl)cc2c1=O` [Example 76, (R)-6-chloro-7-(2-(((3-chloropyridin-2-yl)oxy)methyl)pyrrolidin-1-yl)-1-(6,7-dihydro-4H-pyrazolo[5,1-c][1,4]oxazin-2-yl)-4-oxo-1,4-dihydroquinoline-3-carboxylic acid]: at most 1000 nM.
The same measure, in the same setting: the figure for `O=C(O)c1cn(-c2cnccn2)c2cc(N3C[C@@H](F)C[C@H]3COc3ncccc3Cl)c(Cl)cc2c1=O` [Example 77, 6-chloro-7-[(2S,4S)-2-{[(3-chloropyridin-2-yl)oxy]methyl}-4-fluoropyrrolidin-1-yl]-4-oxo-1-(pyrazin-2-yl)-1,4-dihydroquinoline-3-carboxylic acid] is at most 1000 nM; for `CN(C)C1CN(c2ccc(-n3cc(C(=O)O)c(=O)c4cc(Cl)c(N5CCC[C@@H]5COc5ncccc5Cl)cc43)cn2)C1` [Example 78, 6-chloro-7-[(2R)-2-{[(3-chloropyridin-2-yl)oxy]methyl}pyrrolidin-1-yl]-1-{6-[3-(dimethylamino)azetidin-1-yl]pyridin-3-yl}-4-oxo-1,4-dihydroquinoline-3-carboxylic acid] it is at most 1000 nM.

The assay is the same for the next values; noted with them: Lin28a-dependent Zcchc11 (Z11) TUTase assay; read-out: Potency Lin28a-dep Z11 IC50.
Regarding `COc1ccc(-n2cc(C(=O)O)c(=O)c3cc(Cl)c(N4CCC[C@@H]4COc4ncccc4Cl)cc32)cn1` [Example 353, (R)-6-chloro-7-(2-(((3-chloropyridin-2-yl)oxy)methyl)pyrrolidin-1-yl)-1-(6-methoxypyridin-3-yl)-4-oxo-1,4-dihydroquinoline-3-carboxylic acid], the IC50 was at most 1000 nM.
On the same count and under the same terms, the same measure for `O=C(O)c1cn(-c2cnc(O)cn2)c2cc(N3CCC[C@@H]3COc3ccccn3)c(F)cc2c1=O` [Example 354, (R)-6-fluoro-1-(5-hydroxypyrazin-2-yl)-4-oxo-7-(2-((pyridin-2-yloxy)methyl)pyrrolidin-1-yl)-1,4-dihydroquinoline-3-carboxylic acid]: 1000 to 10000 nM; for `CNCCNc1ccc(-n2cc(C(=O)O)c(=O)c3cc(Cl)c(N4CCC[C@@H]4COc4ncccc4Cl)cc32)cn1` [Example 355, (R)-6-chloro-7-(2-(((3-chloropyridin-2-yl)oxy)methyl)pyrrolidin-1-yl)-1-(6-((2-(methylamino)ethyl)amino)pyridin-3-yl)-4-oxo-1,4-dihydro-quinoline-3-carboxylic acid]: at most 1000 nM; for `Cc1cccnc1OC[C@H]1CCCN1c1cc2c(cc1F)c(=O)c(C(=O)O)cn2C1(C)CC1` [Example 356, (R)-6-fluoro-1-(1-methylcyclo-propyl)-7-(2-(((3-methylpyridin-2-yl)oxy)methyl)pyrrolidin-1-yl)-4-oxo-1,4-dihydroquinoline-3-carboxylic acid]: at most 1000 nM.
Same read-out and setting: the same measure for `O=C(O)c1cn(C2CC2)c2c(F)c(N3CCC[C@@H]3COc3cccnc3)c(F)cc2c1=O` [Example 357, (R)-1-cyclopropyl-6,8-difluoro-4-oxo-7-(2-((pyridin-3-yloxy)methyl)pyrrolidin-1-yl)-1,4-dihydro-quinoline-3-carboxylic acid]: 1000 to 10000 nM; for `CC(=O)NC1CCC(n2cc(C(=O)O)c(=O)c3cc(F)c(N4CCC[C@@H]4COc4ccccn4)cc32)CC1` (stereo partly drawn) [Example 358, 1-(4-acetamidocyclo-hexyl)-6-fluoro-4-oxo-7-[(2R)-2-[(pyridin-2-yloxy)methyl]pyrrolo-1-yl]-1,4-dihydroquinoline-3-carboxylic acid]: 1000 to 10000 nM; for `COC1CC(n2cc(C(=O)O)c(=O)c3cc(F)c(N4CCC[C@@H]4COc4ccccn4)cc32)C1` (stereo partly drawn) [Example 359, (R)-6-fluoro-1-(3-methoxycyclo-butyl)-4-oxo-7-(2-((pyridin-2-yloxy)methyl)pyrrolidin-1-yl)-1,4-dihydro-quinoline-3-carboxylic acid]: 1000 to 10000 nM.
Consider `CS(=O)(=O)NC1CCC(n2cc(C(=O)O)c(=O)c3cc(F)c(N4CCC[C@@H]4COc4ccccn4)cc32)CC1` (stereo partly drawn) [Example 360, (R)-6-fluoro-1-(4-(methyl-sulfonamido)cyclo-hexyl)-4-oxo-7-(2-((pyridin-2-yloxy)methyl)pyrrolidin-1-yl)-1,4-dihydro-quinoline-3-carboxylic acid], for which the IC50 fell in the range of 1000 to 10000 nM.
Still for that read-out and setting: the figure for `CC1(n2cc(C(=O)O)c(=O)c3cc(F)c(N4CCC[C@@H]4COc4ccccn4)cc32)CC1` [Example 361, (R)-6-fluoro-1-(1-methylcyclo-propyl)-4-oxo-7-(2-((pyridin-2-yloxy)methyl)pyrrolidin-1-yl)-1,4-dihydroquinoline-3-carboxylic acid] is at most 1000 nM.
